Our source for the Ki values is patent US8791148B2, “Substituted benzimidazolone derivatives, medicaments comprising them and their use” (AbbVie Deutschland GmbH & Co. KG, priority 2006, dated 2014).

Broadly, the Ki is the equilibrium dissociation constant of an inhibitor or competing ligand from its target.

Molecules are shown by their SMILES.

The target of this assay is T1, human vasopressin V1b receptor (Homo sapiens, UniProt P47901).
T1 construct: expressed in transfected cells; host or cells: CHO-K1 (cell line hV1b-3H2_CHO), membrane preparation
T1 sequence (P47901 1-424): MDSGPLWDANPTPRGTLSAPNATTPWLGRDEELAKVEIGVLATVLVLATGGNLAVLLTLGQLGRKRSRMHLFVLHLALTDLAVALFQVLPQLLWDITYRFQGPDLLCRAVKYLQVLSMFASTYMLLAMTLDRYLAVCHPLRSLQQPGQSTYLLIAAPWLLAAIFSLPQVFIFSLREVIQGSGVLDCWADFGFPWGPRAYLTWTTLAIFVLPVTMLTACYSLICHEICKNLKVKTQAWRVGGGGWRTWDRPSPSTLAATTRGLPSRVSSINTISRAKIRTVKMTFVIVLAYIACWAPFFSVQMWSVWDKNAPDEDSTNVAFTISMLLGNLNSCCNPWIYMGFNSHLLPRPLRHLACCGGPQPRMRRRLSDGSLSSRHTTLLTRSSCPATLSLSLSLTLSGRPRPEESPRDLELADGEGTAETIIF
The experiment in a line: Vasopressin V1b receptor binding assay. The following applies: membranes from CHO-K1 cells with stably expressed human V1b receptors; displacement of 1.5 nM 3H-AVP; read-out: V1b receptor affinity (affinity constant Ki). An outline of the steps: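 Membranes expressing human V1b receptor were incubated with radioligand and test compound (2% DMSO final) in 50 mM Tris, 10 mM MgCl2, 0.1% BSA, pH 7.4, for 60 min at room temperature, in triplicate. 1 uM AVP defined nonspecific binding. Bound ligand was separated by filtration and counted by scintillation; Ki came from nonlinear regression.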
Take `COc1ccc(S(=O)(=O)n2c(=O)n(C(C(=O)N3CCN(c4ccncc4)CC3)c3ccccc3)c3cc(Cl)ccc32)cc1` (stereo not drawn) [Example 58, 5-Chloro-1-(4-methoxybenzenesulfonyl)-3-[2-oxo-1-phenyl-2-(4-pyridin-4-ylpiperazin-1-yl)ethyl]-1,3-dihydrobenzimidazol-2-one]: the inhibition constant (Ki) is below 0.1 µM.
Consider `COc1ccc(S(=O)(=O)n2c(=O)n(C(C(=O)N3CCN(c4ccncc4)CC3)c3ccccc3)c3cc(Cl)c(Cl)cc32)c(OC)c1` (stereo not drawn) [Example 59, 5,6-Dichloro-1-(2,4-dimethoxybenzenesulfonyl)-3-[2-oxo-1-phenyl-2-(4-pyridin-4-ylpiperazin-1-yl)ethyl]-1,3-dihydrobenzoimidaz], for which the Ki fell in the range of 0.5 to 10 µM.
In the case of `COc1ccc(S(=O)(=O)n2c(=O)n(C(C(=O)N3CCN(C4CCN(C)CC4)CC3)c3ccccc3)c3ccccc32)cc1` (stereo not drawn) [Example 60, 1-(4-Methoxybenzenesulfonyl)-3-{2-[4-(1-methylpiperidin-4-yl)piperazin-1-yl]-2-oxo-1-phenyl-ethyl}-1,3-dihydrobenzimidazol-2-one] it was 0.5 to 10 µM; in that of `N#Cc1ccc(S(=O)(=O)n2c(=O)n(C(C(=O)N3CCN(c4ccncc4)CC3)c3ccccc3)c3cc(Cl)c(Cl)cc32)cc1` (stereo not drawn) [Example 62, 4-{5,6-Dichloro-2-oxo-3-[2-oxo-1-phenyl-2-(4-pyridin-4-ylpiperazin-1-yl)-ethyl]-2,3-dihydrobenzimidazol-1-sulfonyl}benzonitrile], 0.5 to 10 µM; in that of `COc1ccc(S(=O)(=O)n2c(=O)n(C(C(=O)N3CCC(N4CCN(C)CC4)CC3)c3ccccc3)c3cc(Cl)ccc32)c(OC)c1` (stereo not drawn) [Example 63, 5-Chloro-1-(2,4-dimethoxybenzenesulfonyl)-3-{2-[4-(4-methylpiperazin-1-yl)piperidin-1-yl]-2-oxo-1-phenylethyl}-1,3-dihydrobenzimidazol-2-one], 0.1 to 0.5 µM.
In the case of `COc1ccc(S(=O)(=O)n2c(=O)n(C(C(=O)N3CCC(N4CCN(C)CC4)CC3)c3ccccc3)c3cc(Cl)ccc32)cc1` (stereo not drawn) [Example 64, 5-Chloro-1-(4-methoxybenzenesulfonyl)-3-{2-[4-(4-methylpiperazin-1-yl)piperidin-1-yl]-2-oxo-1-phenylethyl}-1,3-dihydrobenzimidazol-2-one] it was 0.1 to 0.5 µM; in that of `CN1CCN(C2CCN(C(=O)C(c3ccccc3)n3c(=O)n(S(=O)(=O)c4ccc(C#N)cc4)c4ccc(Cl)cc43)CC2)CC1` (stereo not drawn) [Example 65, 4-(5-Chloro-3-{2-[4-(4-methylpiperazin-1-yl)piperidin-1-yl]-2-oxo-1-phenylethyl}-2-oxo-2,3-dihydrobenzimidazole-1-sulfonyl)benzonitrile], 0.1 to 0.5 µM.
As for `COc1ccc(S(=O)(=O)n2c(=O)n(C(C(=O)N3CCN(c4ccncc4)CC3)c3ccccc3)c3ccc(Cl)cc32)c(OC)c1` (stereo not drawn) [Example 66, 5-Chloro-3-(2,4-dimethoxybenzenesulfonyl)-1-[2-oxo-1-phenyl-2-(4-pyridin-4-ylpiperazin-1-yl)ethyl]-1,3-dihydrobenzimidazol-2-one], the Ki was in the range of 0.5 to 10 µM.
For the compound `COc1ccc(S(=O)(=O)n2c(=O)n(C(C(=O)N3CCN(C4CCN(C)CC4)CC3)c3ccccc3)c3ccccc32)c(OC)c1` (stereo not drawn) [Example 67, 1-(2,4-Dimethoxybenzenesulfonyl)-3-{2-[4-(1-methylpiperidin-4-yl)piperazin-1-yl]-2-oxo-1-phenylethyl}-1,3-dihydrobenzimidazol-2-one], the Ki was 0.5 to 10 µM.
For the compound `CN1CCC(N2CCN(C(=O)C(c3ccccc3)n3c(=O)n(S(=O)(=O)c4ccc(C#N)cc4)c4ccc(Cl)cc43)CC2)CC1` (stereo not drawn) [Example 68, 4-(5-Chloro-3-{2-[4-(1-methylpiperidin-4-yl)piperazin-1-yl]-2-oxo-1-phenylethyl}-2-oxo-2,3-dihydrobenzimidazol-1-sulfonyl)benzonitrile], the Ki is 0.1 to 0.5 µM.
With `COc1ccc(S(=O)(=O)n2c(=O)n(C(C(=O)N3CCN(C4CCN(C)CC4)CC3)c3ccccc3)c3cc(Cl)c(Cl)cc32)c(OC)c1` (stereo not drawn) [Example 69, 5,6-Dichloro-1-(2,4-dimethoxybenzenesulfonyl)-3-{2-[4-(1-methylpiperidin-4-yl)piperazin-1-yl]-2-oxo-1-phenyl-ethyl}-1,3-dihydrobenzimidazol-2-one] the figure was 0.5 to 10 µM; with `COc1ccc(S(=O)(=O)n2c(=O)n(C(C(=O)N3CCN(c4ccncc4)CC3)c3ccccc3)c3ccccc32)c(OC)c1` (stereo not drawn) [Example 70, 1-(2,4-Dimethoxybenzenesulfonyl)-3-[2-oxo-1-phenyl-2-(4-pyridin-4-ylpiperazin-1-yl)ethyl]-1,3-dihydrobenzimidazol-2-one], 0.5 to 10 µM.
In the case of `CN1CCC(N2CCN(C(=O)C(c3ccccc3)n3c(=O)n(S(=O)(=O)c4cccc5cccnc45)c4cc(Cl)ccc43)CC2)CC1` (stereo not drawn) [Example 71, 5-Chloro-1-{2-[4-(1-methylpiperidin-4-yl)piperazin-1-yl]-2-oxo-1-phenyl-ethyl}-3-(quinoline-8-sulfonyl)-1,3-dihydrobenzimidazol-2-one] it was 0.5 to 10 µM.
Regarding `COc1ccc(S(=O)(=O)n2c(=O)n(C(C(=O)N3CCC(N4CCN(C)CC4)CC3)c3ccccc3)c3ccccc32)c(OC)c1` (stereo not drawn) [Example 72, 1-(2,4-Dimethoxybenzenesulfonyl)-3-{2-[4-(4-methylpiperazin-1-yl)piperidin-1-yl]-2-oxo-1-phenylethyl}-1,3-dihydrobenzimidazol-2-one], the inhibition constant (Ki) was 0.5 to 10 µM.
For the compound `COc1ccc(S(=O)(=O)n2c(=O)n(C(C(=O)N3CCN(c4ccncc4)CC3)c3ccccc3)c3ccc(Cl)cc32)cc1` (stereo not drawn) [Example 73, 5-Chloro-3-(4-methoxybenzenesulfonyl)-1-[2-oxo-1-phenyl-2-(4-pyridin-4-ylpiperazin-1-yl)-ethyl]-1,3-dihydrobenzimidazol-2-one], the Ki lay within 0.1 to 0.5 µM.
In the case of `CCCN1CCN(C2CCN(C(=O)C(c3ccccc3)n3c(=O)n(S(=O)(=O)c4ccc(OC)cc4)c4cc(Cl)ccc43)C2)CC1` (stereo not drawn) [Example 74, 5-Chloro-3-(4-methoxybenzenesulfonyl)-1-{2-oxo-1-phenyl-2-[3-(4-propylpiperazin-1-yl)-pyrrolidin-1-yl]ethyl}-1,3-dihydrobenzimidazol-2-one] it was below 0.1 µM; in that of `CCCN1CCN(C2CCN(C(=O)C(C)n3c(=O)n(S(=O)(=O)c4ccc(OC)cc4)c4ccc(Cl)cc43)C2)CC1` (stereo not drawn) [Example 75, 5-Chloro-1-(4-methoxybenzenesulfonyl)-3-{1-methyl-2-oxo-2-[3-(4-propylpiperazin-1-yl)-pyrrolidin-1-yl]ethyl}-1,3-dihydrobenzimidazol-2-one], 0.1 to 0.5 µM.
Take `CCCN1CCN(C2CCN(C(=O)C(c3ccccc3OC)n3c(=O)n(S(=O)(=O)c4ccc(OC)cc4)c4ccc(Cl)cc43)C2)CC1` (stereo not drawn) [Example 76, 5-Chloro-1-(4-methoxybenzenesulfonyl)-3-{1-(2-methoxyphenyl)-2-oxo-2-[3-(4-propylpiperazin-1-yl)pyrrolidin-1-yl]ethyl}-1,3-dihydrobenzimidazol-2-one]: the Ki was below 0.1 µM.
Take `CCCN1CCN(C2CCN(C(=O)C(c3ccc(OC)cc3)n3c(=O)n(S(=O)(=O)c4ccc(OC)cc4)c4ccc(Cl)cc43)C2)CC1` (stereo not drawn) [Example 78, 5-Chloro-1-(4-methoxybenzenesulfonyl)-3-{1-(4-methoxyphenyl)-2-oxo-2-[3-(4-propylpiperazin-1-yl)pyrrolidin-1-yl]ethyl}-1,3-dihydrobenzimidazol-2-one]: the Ki is below 0.1 µM.
With `CCCN1CCN(C2CCN(C(=O)C(c3cccc(OC)c3)n3c(=O)n(S(=O)(=O)c4ccc(OC)cc4)c4ccc(Cl)cc43)C2)CC1` (stereo not drawn) [Example 79, 5-Chloro-1-(4-methoxybenzenesulfonyl)-3-{1-(3-methoxyphenyl)-2-oxo-2-[3-(4-propylpiperazin-1-yl)pyrrolidin-1-yl]-ethyl}-1,3-dihydrobenzimidazol-2-one] the figure was below 0.1 µM; with `CCCN1CCN(C2CCN(C(=O)C(c3ccccc3)n3c(=O)n(S(=O)(=O)c4ccc(OC)cc4)c4ccc(I)cc43)C2)CC1` (stereo not drawn) [Example 80, 5-Iodo-1-(4-methoxybenzenesulfonyl)-3-{2-oxo-1-phenyl-2-[3-(4-propylpiperazin-1-yl)pyrrolidin-1-yl]ethyl}-1,3-dihydrobenzimidazol-2-one], below 0.1 µM.
Take `CCCN1CCN(C2CCN(C(=O)C(Cc3ccccc3)n3c(=O)n(S(=O)(=O)c4ccc(OC)cc4)c4ccc(Cl)cc43)C2)CC1` (stereo not drawn) [Example 81, 3-{1-Benzyl-2-oxo-2-[3-(4-propylpiperazin-1-yl)pyrrolidin-1-yl]ethyl}-5-chloro-1-(4-methoxybenzenesulfonyl)-1,3-dihydrobenzimidazol-2-one]: the Ki lay in the range of 0.1 to 0.5 µM.
In the case of `COc1ccc(S(=O)(=O)n2c(=O)n(C(C(=O)N3CCN(c4ccccn4)CC3)c3ccccc3)c3cc(Cl)ccc32)cc1` (stereo not drawn) [Example 82, 5-Chloro-1-(4-methoxybenzenesulfonyl)-3-[2-oxo-1-phenyl-2-(4-pyridin-2-ylpiperazin-1-yl)ethyl]-1,3-dihydrobenzimidazol-2-one] it was 0.5 to 10 µM; in that of `COc1ccc(S(=O)(=O)n2c(=O)n(C(C(=O)N3CCCC3c3ccccc3)c3ccccc3)c3cc(Cl)ccc32)cc1` (stereo not drawn) [Example 83, 5-Chloro-1-(4-methoxybenzenesulfonyl)-3-[2-oxo-1-phenyl-2-(2-phenylpyrrolidin-1-yl)ethyl]-1,3-dihydrobenzimidazol-2-one], 0.5 to 10 µM.
